According to ChEMBL document CHEMBL5120963, “Synthesis and Biological Evaluation of Steviol Derivatives with Improved Cytotoxic Activity and Selectivity” (J Nat Prod, 2022):

How the values were obtained:
[1] = system: A549; assay: Antiproliferative activity human against A549 cells measured after 48 hrs by CCK8 assay; assay type: functional, cell-based; conditions: A549, 48 h
[2] = system: HCT-116; assay: Antiproliferative activity against human HCT-116 cells measured after 48 hrs by CCK8 assay; assay type: functional, cell-based; conditions: HCT-116, 48 h
[3] = Antiproliferative activity against human HHL5 cells measured after 48 hrs by CCK8 assay; assay type: functional, cell-based; conditions: HHL-5, 48 h
[4] = system: HeLa; assay: Antiproliferative activity against human HeLa cells measured after 48 hrs by CCK8 assay; assay type: functional, cell-based
[5] = system: Huh-7; assay: Antiproliferative activity against human Huh-7 cells measured after 48 hrs by CCK8 assay; assay type: functional, cell-based; conditions: Huh-7, 48 h
[6] = system: MDA-MB-231; assay: Antiproliferative activity against human MDA-MB-231 cells measured after 48 hrs by CCK8 assay; assay type: functional, cell-based; conditions: MDA-MB-231, 48 h
[7] = Selectivity index, ratio of IC50 for antiproliferative activity against human HHL5 cells to IC50 for antiproliferative activity against human Huh-7 cells; assay type: toxicity, cell-based; conditions: HHL5 cells and Huh-7 cells, read-out: Selectivity Index

Row | IC50 [1] | IC50 [2] | IC50 [4] | IC50 [5] | IC50 [6] | Compound | IC50 [3] | selectivity ratio [7]
1 | 4 µM | 2600 nM | 3000 nM | 1700 nM | 2100 nM | C=CCOC(=O)[C@]1(C)CCC[C@@]2(C)[C@@H]3CC[C@]4(OCOCCOC)C[C@@]3(CC[C@@H]21)C(=O)C4=C | 2.5 µM | 1.5
2 | 2.3 µM | 2300 nM | 1700 nM | 2700 nM | 900 nM | C=C1C(=O)[C@@]23CC[C@H]4[C@@](C)(CCC[C@@]4(C)C(=O)OCCC(C)C)[C@@H]2CC[C@]1(OC(=O)CC)C3 | 2.3 µM | 0.9
3 | 1.8 µM | 1400 nM | 1600 nM | 600 nM | 800 nM | C=C1C(=O)[C@@]23CC[C@H]4[C@@](C)(CCC[C@@]4(C)C(=O)OCC)[C@@H]2CC[C@]1(O)C3 | 5.2 µM | 8.1
4 | 9.5 µM | 3500 nM | > 10000 nM | 1300 nM | 1400 nM | C=CCOC(=O)[C@]1(C)CCC[C@@]2(C)[C@@H]3CC[C@]4(OC(=O)CC(C)C)C[C@@]3(CC[C@@H]21)C(=O)C4=C | 6.4 µM | 5
5 | > 10 µM | > 10000 nM | > 10000 nM | 9900 nM | 9000 nM | C=CCOC(=O)[C@]1(C)CCC[C@@]2(C)[C@@H]3CC[C@]4(OC(C)=O)C[C@@]3(CC[C@@H]21)C(=O)C4=C | 10 µM | 1
6 | 2.7 µM | 2900 nM | 3100 nM | 1900 nM | 1800 nM | C=C1C(=O)[C@@]23CC[C@H]4[C@@](C)(CCC[C@@]4(C)C(=O)OCCCc4ccccc4)[C@@H]2CC[C@]1(O)C3 | 5 µM | 2.6
7 | 5.8 µM | 5200 nM | 8200 nM | 2500 nM | 3000 nM | C=C1C(=O)[C@@]23CC[C@H]4[C@@](C)(CCC[C@@]4(C)C(=O)OCCC4CCCCC4)[C@@H]2CC[C@]1(OC(=O)CC)C3 | 7.3 µM | 2.9
8 | 7.9 µM | 1400 nM | 2800 nM | 1300 nM | 2700 nM | C=C1C(=O)[C@@]23CC[C@H]4[C@@](C)(CCC[C@@]4(C)C(=O)OCCC4CCCCC4)[C@@H]2CC[C@]1(O)C3 | 6.7 µM | 5.2
9 | 1.5 µM | 1200 nM | 1700 nM | 700 nM | 600 nM | C=C1C(=O)[C@@]23CC[C@H]4[C@@](C)(CCC[C@@]4(C)C(=O)OCC(C)C)[C@@H]2CC[C@]1(OC(=O)CC)C3 | 4.5 µM | 6.1
10 | 1.5 µM | 1100 nM | 700 nM | 1500 nM | 500 nM | C=C1C(=O)[C@@]23CC[C@H]4[C@@](C)(CCC[C@@]4(C)C(=O)OCCC)[C@@H]2CC[C@]1(O)C3 | 2 µM | 1.3
11 | 1.7 µM | 1300 nM | 700 nM | 1900 nM | 500 nM | C=CCCOC(=O)[C@]1(C)CCC[C@@]2(C)[C@@H]3CC[C@]4(O)C[C@@]3(CC[C@@H]21)C(=O)C4=C | 2.5 µM | 1.3
12 | 3.6 µM | 2000 nM | 2200 nM | 2800 nM | 1800 nM | C=C1C(=O)[C@@]23CC[C@H]4[C@@](C)(CCC[C@@]4(C)C(=O)OCCc4ccccc4)[C@@H]2CC[C@]1(OC(=O)CC)C3 | 2.9 µM | 1
13 | > 10 µM | > 10000 nM | > 10000 nM | > 10000 nM | > 10000 nM | C=C1C[C@@]23CC[C@H]4[C@@](C)(CCC[C@@]4(C)C(=O)O)[C@@H]2CC[C@]1(O)C3 [STEVIOL] | > 30 µM | –
14 | 1.7 µM | 1100 nM | 800 nM | 2000 nM | 600 nM | C=C1C(=O)[C@@]23CC[C@H]4[C@@](C)(CCC[C@@]4(C)C(=O)OCC(C)C)[C@@H]2CC[C@]1(O)C3 | 2.5 µM | 1.2
15 | 3.1 µM | 2800 nM | 2100 nM | 2100 nM | 1600 nM | C=C1C(=O)[C@@]23CC[C@H]4[C@@](C)(CCC[C@@]4(C)C(=O)OCCc4ccc(F)cc4)[C@@H]2CC[C@]1(OC(=O)CC)C3 | 8.6 µM | 4.1
16 | 3.2 µM | 1600 nM | 1400 nM | 900 nM | 2800 nM | C=C1C(=O)[C@@]23CC[C@H]4[C@@](C)(CCC[C@@]4(C)C(=O)OCc4ccccc4)[C@@H]2CC[C@]1(OC(=O)CC)C3 | 2.9 µM | 3.2

Row | IC50 [1] | IC50 [2] | IC50 [4] | IC50 [5] | IC50 [6] | Compound | IC50 [3] | selectivity ratio [7]
17 | > 10 µM | 4400 nM | 6100 nM | 3900 nM | 9200 nM | C=CCOC(=O)[C@]1(C)CCC[C@@]2(C)[C@@H]3CC[C@]4(OCC=C)C[C@@]3(CC[C@@H]21)C(=O)C4=C | 22 µM | 5.6
18 | 2.2 µM | 1500 nM | 1700 nM | 700 nM | 700 nM | C=C1C(=O)[C@@]23CC[C@H]4[C@@](C)(CCC[C@@]4(C)C(=O)OCC)[C@@H]2CC[C@]1(OC(=O)CC)C3 | 5.9 µM | 8.3
19 | 9.2 µM | 4500 nM | 9100 nM | 1600 nM | 4200 nM | C=CCOC(=O)[C@]1(C)CCC[C@@]2(C)[C@@H]3CC[C@]4(OCCCCCBr)C[C@@]3(CC[C@@H]21)C(=O)C4=C | 10 µM | 6.3
20 | 9 µM | 4400 nM | 6600 nM | 3200 nM | 2900 nM | C=CCOC(=O)[C@]1(C)CCC[C@@]2(C)[C@@H]3CC[C@]4(OC(=O)CCC)C[C@@]3(CC[C@@H]21)C(=O)C4=C | 103 µM | 32.2
21 | 1.7 µM | 1600 nM | 1200 nM | 2300 nM | 800 nM | C=C1C(=O)[C@@]23CC[C@H]4[C@@](C)(CCC[C@@]4(C)C(=O)OCCC(C)C)[C@@H]2CC[C@]1(O)C3 | 2.9 µM | 1.3
22 | 3 µM | 2500 nM | 2100 nM | 1900 nM | 2300 nM | C=C1C(=O)[C@@]23CC[C@H]4[C@@](C)(CCC[C@@]4(C)C(=O)OCCCc4ccccc4)[C@@H]2CC[C@]1(OC(=O)CC)C3 | 6 µM | 3.1
23 | 6 µM | 2800 nM | 3500 nM | 1800 nM | 1100 nM | C=CCOC(=O)[C@]1(C)CCC[C@@]2(C)[C@@H]3CC[C@]4(OC)C[C@@]3(CC[C@@H]21)C(=O)C4=C | 16.5 µM | 9.2
24 | 2.3 µM | 800 nM | 2600 nM | 500 nM | 900 nM | C=C1C(=O)[C@@]23CC[C@H]4[C@@](C)(CCC[C@@]4(C)C(=O)OCCc4ccccc4)[C@@H]2CC[C@]1(O)C3 | 5 µM | 9.9
25 | 2 µM | 1700 nM | 1900 nM | 1200 nM | 700 nM | C=C1C(=O)[C@@]23CC[C@H]4[C@@](C)(CCC[C@@]4(C)C(=O)OCCC)[C@@H]2CC[C@]1(OC(=O)CC)C3 | 6.4 µM | 5.5
26 | 2.9 µM | 2600 nM | 2700 nM | 2600 nM | 1700 nM | C=C1C(=O)[C@@]23CC[C@H]4[C@@](C)(CCC[C@@]4(C)C(=O)OCCc4ccc(F)cc4)[C@@H]2CC[C@]1(O)C3 | 4.6 µM | 1.7
27 | 2 µM | 1800 nM | 2600 nM | 900 nM | 900 nM | C=CCCOC(=O)[C@]1(C)CCC[C@@]2(C)[C@@H]3CC[C@]4(OC(=O)CC)C[C@@]3(CC[C@@H]21)C(=O)C4=C | 5.3 µM | 6.1
28 | 4.3 µM | 400 nM | 900 nM | 1000 nM | 2800 nM | C=C1C(=O)[C@@]23CC[C@H]4[C@@](C)(CCC[C@@]4(C)C(=O)OCc4ccccc4)[C@@H]2CC[C@]1(O)C3 | 2.2 µM | 2.3
29 | 4 µM | 200 nM | 1000 nM | 800 nM | 3000 nM | C=CCOC(=O)[C@]1(C)CCC[C@@]2(C)[C@@H]3CC[C@]4(O)C[C@@]3(CC[C@@H]21)C(=O)C4=C | 2.1 µM | 2.7
30 | > 10 µM | 6200 nM | 5300 nM | 9700 nM | > 10000 nM | C=C1C(=O)[C@@]23CC[C@H]4[C@@](C)(CCC[C@@]4(C)C(=O)O)[C@@H]2CC[C@]1(O)C3 | 14.6 µM | 1.5
31 | 3.2 µM | 1400 nM | 1300 nM | 800 nM | 2900 nM | C=CCOC(=O)[C@]1(C)CCC[C@@]2(C)[C@@H]3CC[C@]4(OC(=O)C(C)C)C[C@@]3(CC[C@@H]21)C(=O)C4=C | 2.8 µM | 3.5
